Consider four molecules from PMC2576352, “The V1-V3 region of a brain-derived HIV-1 envelope glycoprotein determines macrophage tropism, low CD4 dependence, increased fusogenicity and altered sensitivity to entry inhibitors” (Retrovirology, 2008).

Positions count from the first letter of the chain named. Peptide text beside a SMILES is read from it.

Assay [1] relates to Br (brain-derived) Env pseudotype. In kind it is cell-based, HIV-1. Conditions: HOS-CD4-CCR5 cells, inhibitor + virus 5–6 h at 37°C, luciferase at 2–3 days, non-linear regression, 95% confidence limits in parentheses. As to the method: (§1) To produce Env-pseudotyped, luciferase-reporter viruses, 293T cells were co-transfected using calcium phosphate precipitation (ProFection Mammalian Transfection System, Promega, Madison, WI) with each Env expression vector and with the Env-deficient, pNL4-3-luc^+env^- provirus, developed by N. Landau by introducing a frameshift mutation in the env gene of pNL4-3-luc^+ [87]. Culture supernatants containing the pseudotyped particles were collected 48–72 hours after transfection, clarified by centrifugation, aliquoted and stored at -80°C until use. Pseudotype particles lacking envelope glycoproteins, which are generated by co-transfecting the luciferase HIV-1 pro-viral backbone with an empty expression vector, are used as negative control for all pseudotype infections. Pseudotype stocks were quantitated using a p24^gag antigen capture ELISA (SAIC-National Cancer Institute) and normalized amounts of stocks were used to infect target cells for 5–6 hours at 37°C. At 2–3 days post-infection, the cells were washed with PBS and lysed, and the amount of entry mediated by each Env was measured by detecting luciferase activity (Luciferase Assay System, Promega) in a microplate luminometer (GloMax, Promega), following manufacturer's instructions. Results are obtained as relative light units (RLU) per second. At least three independent experiments were performed for each analysis described below, with 2–8 replicates within each experiment.
(§2) To test for sensitivity to fusion inhibitors, BMS-378806 and HNG-105, the medium from HOS-CD4-CCR5 cells plated in 96-well plates 24 hours before infection, was removed and replaced by fresh medium containing 2× the final concentration of the corresponding inhibitor, and immediately the same volume of viral stocks was added. After 5–6 hours at 37°C, inocula and inhibitors were removed and the cells were incubated for 2–3 days before evaluating the amount of infection.
(§3) Inhibition curves obtained by plotting the relative infection (expressed as a percent of untreated) versus the concentration of the inhibitor were analyzed by non-linear regression with a sigmoidal dose-response model (variable slopes) using GraphPad Prism software, version 4.02 (GraphPad Software, San Diego, CA); this analysis uses a four parameter logistic equation, Y = Bottom + (Top-Bottom)/( 1+10^((log10IC50−X)⋅Slope) ) where Y is the response, Bottom is 0 and Top is 100, X is the logarithm of the concentration, and Slope is the slope of the curve. 50% inhibitory concentrations (IC50) and 95% confidence intervals were estimated from the non-linear regression analysis. Fusogenicity data were analyzed by non-linear regression with a one-phase exponential model (using GraphPad Prism) that uses the equation Y=Ymax(1-e^(-kX)), where Ymax is the maximum response and k is the observed rate. CD4 dependence data were analyzed with SPSS, version 16, using the non-parametric Mann-Whitney test.

Assay [2] relates to Spl (spleen-derived) Env pseudotype. In kind it is cell-based, HIV-1. Conditions: HOS-CD4-CCR5 cells, inhibitor + virus 5–6 h at 37°C, luciferase at 2–3 days, non-linear regression, 95% confidence limits in parentheses. On the procedure:
as §1, §2, §3

Assay [3] deals with Bv1v2 chimeric Env pseudotype. In kind it is cell-based, HIV-1. Conditions: HOS-CD4-CCR5 cells, inhibitor + virus 5–6 h at 37°C, luciferase at 2–3 days, non-linear regression, 95% confidence limits in parentheses. As to the method:
as §1, §2, §3

The test system of assay [4] is Bv1v3 chimeric Env pseudotype. In kind it is cell-based, HIV-1. Conditions: HOS-CD4-CCR5 cells, inhibitor + virus 5–6 h at 37°C, luciferase at 2–3 days, non-linear regression, 95% confidence limits in parentheses. As to the method:
as §1, §2, §3

Assay [5] concerns BaL Env pseudotype. In kind it is cell-based, HIV-1. Particulars: HOS-CD4-CCR5 cells, inhibitor + virus 5–6 h at 37°C, luciferase at 2–3 days, non-linear regression, 95% confidence limits in parentheses. On the procedure: as §1, §2, §3
Assay [6] deals with BS chimeric Env (brain gp120-spleen gp41) pseudotype. It counts as cell-based, HIV-1. Conditions: HOS-CD4-CCR5 cells, inhibitor + virus 5–6 h at 37°C, luciferase at 2–3 days, non-linear regression, 95% confidence limits in parentheses. On the procedure:
as §1, §2, §3

Assay [7] deals with DS17 Env pseudotype. It counts as cell-based, HIV-1. Particulars: HOS-CD4-CCR5 cells, inhibitor + virus 5–6 h at 37°C, luciferase at 2–3 days, non-linear regression, 95% confidence limits in parentheses. On the procedure: as §1, §2, §3
Assay [8] relates to SB chimeric Env (spleen gp120-brain gp41) pseudotype. It counts as cell-based, HIV-1. Conditions: HOS-CD4-CCR5 cells, inhibitor + virus 5–6 h at 37°C, luciferase at 2–3 days, non-linear regression, 95% confidence limits in parentheses. On the procedure:
as §1, §2, §3

The subject of assay [9] is Br(N283T) mutant Env pseudotype. It counts as cell-based, HIV-1. Particulars: HOS-CD4-CCR5 cells, inhibitor + virus 5–6 h at 37°C, luciferase at 2–3 days, non-linear regression, 95% confidence limits in parentheses. On the procedure:
as §1, §2, §3

The subject of assay [10] is DS17(N283T) mutant Env pseudotype. It counts as cell-based, HIV-1. Conditions: HOS-CD4-CCR5 cells, inhibitor + virus 5–6 h at 37°C, luciferase at 2–3 days, non-linear regression, 95% confidence limits in parentheses. On the procedure: as §1, §2, §3
Assay [11] addresses T1, N40, biotinylated HR1-derived peptide (HIV-1, biotin on the amino terminus).
T1 construct: peptide derived from the heptad repeat 1 (HR1) region of HIV-1 gp41; Held on a streptavidin SA chip by its biotin; also called HR1-based peptide; source: synthetic peptide, custom synthesized
T1 peptide: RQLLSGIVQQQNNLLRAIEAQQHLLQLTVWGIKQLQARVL
Description: SPR; Biacore 3000; biotinylated N40 held on a streptavidin SA chip, N40scr surface as reference; T-1249 and T-1249-BR at 81–650 nM passed over at 25 µl/min, 25°C; 25 mM Tris-HCl, 150 mM NaCl, pH 7.4, 8% DMSO. Conditions: both partners purified.

Broadly, the IC50 is the point on the concentration scale where inhibition reaches its midpoint.

With `CC[C@H](C)[C@H](NC(=O)[C@H](CCC(N)=O)NC(=O)[C@H](C)NC(=O)[C@H](CCC(N)=O)NC(=O)[C@H](CCC(=O)O)NC(=O)[C@H](CC(C)C)NC(=O)[C@H](CC(C)C)NC(=O)[C@H](C)NC(=O)[C@@H](NC(=O)[C@@H](NC(=O)[C@H](CCCCN)NC(=O)[C@H](CCC(N)=O)NC(=O)[C@H](CCC(=O)O)NC(=O)[C@H](Cc1c[nH]c2ccccc12)NC(=O)[C@H](CCC(=O)O)NC(=O)[C@H](CCC(N)=O)NC(=O)[C@@H](N)Cc1c[nH]c2ccccc12)[C@@H](C)CC)[C@@H](C)O)C(=O)N[C@@H](CCC(N)=O)C(=O)N[C@@H](CCC(N)=O)C(=O)N[C@@H](CCC(=O)O)C(=O)N[C@@H](CCSC)C(=O)N[C@@H](CC(N)=O)C(=O)N[C@@H](CCC(=O)O)C(=O)N[C@@H](CCC(N)=O)C(=O)N[C@@H](CCC(=O)O)C(=O)N[C@@H](CC(C)C)C(=O)N[C@@H](CCC(N)=O)C(=O)N[C@@H](CCCCN)C(=O)N[C@@H](CC(C)C)C(=O)N[C@@H](CC(=O)O)C(=O)N[C@H](C(=O)N[C@@H](Cc1c[nH]c2ccccc12)C(=O)N[C@@H](C)C(=O)N[C@@H](CO)C(=O)N[C@@H](CC(C)C)C(=O)N[C@@H](Cc1c[nH]c2ccccc12)C(=O)N[C@@H](CCC(=O)O)C(=O)N[C@@H](Cc1c[nH]c2ccccc12)C(=O)N[C@@H](Cc1ccccc1)C(=O)O)[C@@H](C)O` [T-1249-BR] (H-WQEWEQKITALLEQAQIQQEMNEQELQKLDTWASLWEWF-OH), the IC50 in assay [1] turned out to be 195 nM; in assay [2], 27 nM; in assay [3], 155 nM; in assay [4], 245 nM; in assay [5], 124 nM; in [6] it was 155 nM. The IC50 is 92 nM in assay [7], 41 nM in assay [8], 221 nM in assay [9] and 104 nM in [10].

Turning to `CC[C@H](C)[C@H](NC(=O)[C@H](CCC(N)=O)NC(=O)[C@H](C)NC(=O)[C@H](CCC(N)=O)NC(=O)[C@H](CCC(=O)O)NC(=O)[C@H](CC(C)C)NC(=O)[C@H](CC(C)C)NC(=O)[C@H](C)NC(=O)[C@@H](NC(=O)[C@@H](NC(=O)[C@H](CCCCN)NC(=O)[C@H](CCC(N)=O)NC(=O)[C@H](CCC(=O)O)NC(=O)[C@H](Cc1c[nH]c2ccccc12)NC(=O)[C@H](CCC(=O)O)NC(=O)[C@H](CCC(N)=O)NC(=O)[C@@H](N)Cc1c[nH]c2ccccc12)[C@@H](C)CC)[C@@H](C)O)C(=O)N[C@@H](CCC(N)=O)C(=O)N[C@@H](CCC(N)=O)C(=O)N[C@@H](CCC(=O)O)C(=O)N[C@@H](CCCCN)C(=O)N[C@@H](CC(N)=O)C(=O)N[C@@H](CCC(=O)O)C(=O)N[C@@H](Cc1ccc(O)cc1)C(=O)N[C@@H](CCC(=O)O)C(=O)N[C@@H](CC(C)C)C(=O)N[C@@H](CCC(N)=O)C(=O)N[C@@H](CCCCN)C(=O)N[C@@H](CC(C)C)C(=O)N[C@@H](CC(=O)O)C(=O)N[C@@H](CCCCN)C(=O)N[C@@H](Cc1c[nH]c2ccccc12)C(=O)N[C@@H](C)C(=O)N[C@@H](CO)C(=O)N[C@@H](CC(C)C)C(=O)N[C@@H](Cc1c[nH]c2ccccc12)C(=O)N[C@@H](CCC(=O)O)C(=O)N[C@@H](Cc1c[nH]c2ccccc12)C(=O)N[C@@H](Cc1ccccc1)C(=O)O` [T-1249], the IC50 was 173 nM in assay [1]; 37 nM in [2]; 224 nM in [3]; 227 nM in assay [4]; 102 nM in assay [5]; 140 nM in [6]. Besides, the IC50 in [7] is 210 nM; in [8] it was 83 nM; in assay [9], 166 nM; in [10], 155 nM.

B1: T-1249 (peptide)
peptide: WQEWEQKITALLEQAQIQQEKNEYELQKLDKWASLWEWF
notes: also called parental T-1249; HR2-derived peptide; source: synthetic peptide, custom synthesized (BioSynthesis, Inc.)
In the case of B1, the binding result in [11] is reported as “binds”.

B2: T-1249-BR (peptide)
peptide: B1 peptide with K21M, Y24Q, K31T
notes: T-1249 with three amino acid changes (printed in bold) that are present in the HR2 region of the H0002GH brain-derived env clones; also called modified T-1249-BR; HR2-derived peptide; source: synthetic peptide, custom synthesized (BioSynthesis, Inc.)
In the case of B2, the binding result in [11] was “binds”.
